From PMC8151276, “An Integrated Approach toward NanoBRET Tracers for Analysis of GPCR Ligand Engagement” (Molecules, 2021)

Biological target: T1, CYSLTR1 (Homo sapiens, UniProt Q9Y271)
T1 construct: purchased Promega (in-house HiBiT-GPCR construct library, NanoBRET)
T1 sequence (Q9Y271 1-337): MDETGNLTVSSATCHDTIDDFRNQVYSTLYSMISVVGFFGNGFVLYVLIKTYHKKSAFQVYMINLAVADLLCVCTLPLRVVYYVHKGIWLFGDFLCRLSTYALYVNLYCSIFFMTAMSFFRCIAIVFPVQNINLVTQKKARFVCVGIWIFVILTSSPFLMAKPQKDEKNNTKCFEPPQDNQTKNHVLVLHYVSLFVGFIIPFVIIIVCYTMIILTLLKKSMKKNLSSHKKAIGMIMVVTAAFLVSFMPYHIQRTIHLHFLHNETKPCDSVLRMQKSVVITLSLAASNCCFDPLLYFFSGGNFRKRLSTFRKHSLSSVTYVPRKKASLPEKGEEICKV
Experiment: NanoBRET screen HiBiT-CYSLTR1 in HEK293
Type: binding
Experimental: Each tracer candidate was screened across the entire library of HiBiT-GPCR constructs using NanoBRET as the detection modality. As depicted in Figure 4A, the specificity of interactions was evaluated through decrease in BRET due to competitive displacement of a bound tracer by excess parental compound. Each tracer was analyzed for binding to each HiBiT-GPCR fusion in the absence and in the presence of competing parental compound. Briefly, HEK293 cells were transfected with HiBiT-GPCR constructs diluted into promoterless DNA to reduce expression and maximize translocation to the cell surface. Each tracer candidate was then screened at concentrations of 1 μM and 0.1 μM across cells expressing these fusions. Cells were treated for 1.5 h with tracer either alone or in the presence of 20 μM competing parental compound (i.e., control). BRET was measured upon addition of purified LgBiT and subsequent complementation with HiBiT genetically fused to a GPCR. The specificity of interactions was assessed through a decrease in BRET signal due to competitive displacement of the bound tracer. To further gauge the robustness of these interactions, the fold response over the control (i.e., BRETtracer/BRETcontrol) was calculated. We chose a 1.5-fold response, which translates to ≥7-fold signal over noise as the minimal threshold required to score an interaction as positive.
HiBiT-GPCR DNA constructs were diluted in 10 mM Tris pH 8 to a final concentration of 0.01 μg/μL, arrayed in 96-well plates and stored at −20 °C. For transfection, HEK293 cells were suspended in Opti-MEM (without phenol red) supplemented with 2% fetal bovine serum (Seradigm) and 100 units/mL penicillin–streptomycin (Gibco) at a final concentration of 220,000 cells/mL and dispensed into white 96-well plates at 90 μL/well. Subsequent transfections and screens were carried using an Agilent Bravo Automated Liquid Handling Platform. First, the 96-well HiBiT DNA arrays were diluted 25-fold in Opti-MEM (without serum or phenol red) to a final concentration of 0.0004 μg/μL and 20 μL of the diluted DNAs were transferred into new 96-well plates. Next, promoterless carrier DNA (1 μg/μL) was diluted 25-fold (0.04 μg/μL) and then dispensed into the diluted arrays at 20 μL/well. Following brief mixing, Viafect transfection reagent (Promega) diluted 16-fold into Opti-MEM was dispensed into the plates at 40 μL/well. After mixing by pipetting, plates were incubated for 10 min on the pipetting station deck. The DNA-transfection reagent complexes were then added to plates containing cells. To facilitate the screen, 10 μL of DNA-transfection reagent complexes were added in duplicates to the top 4 and bottom 4 rows, resulting in two identical 48-well arrays per plate. Plates with transfected cells were incubated for 18–20 h at 37 °C/5% CO2. A screen of each tracer across the entire library using two different concentrations requires duplicate plates of transfected cells. Depending on the number of tracers being screened, transfections can be scaled up using the same ratios. The next day, for each tracer, four 20× screening solutions in tracer dilution buffer (Promega) were prepared: two duplicates at final concentration of 20 μM and two duplicates at a final concentration of 2 μM. […] The four resulting solutions were diluted 4-fold in Opti-MEM without serum or phenol red to generate 5× solutions (5 µM and 0.5 µM tracer +/− 100 μM competing compound). To screen the library, a BioTek MultiFlo FX liquid dispenser was used to dispense 22.5 µL of tracer solution to the top 4 rows and 22.5 µL tracer + competing compound solution to the 4 bottom rows. Plates were briefly mixed on an orbital shaker and incubated for 1.5 h at room temperature. […] Plates were briefly mixed on an orbital shaker and incubated for 15 min to allow complementation.

SMILES	NanoBRET Fold Response (CYSLTR1, tracer 0.1μM)	NanoBRET Fold Response (CYSLTR1, tracer 1μM)	further results
CCOC(=O)c1cc(C#N)c(N2CCC(C(=O)NS(=O)(=O)Cc3ccccc3/C=C/C(=O)NCCNC(=O)CCc3ccc4n3[B-](F)(F)[N+]3=C(c5ccc[nH]5)C=CC3=C4)CC2)nc1C [AZD1283-1-NB590]	–	–	NanoBRET Fold Response (CYSLTR1, 0.1μM): 1.01; NanoBRET Fold Response (CYSLTR1, 1μM): 0.98
N#CN=C(NCCCOc1cccc(CN2CCCCC2)c1)NCCNC(=O)CCOCCOCCOCCOCCNC(=O)CCc1ccc2n1[B-](F)(F)[N+]1=C(c3ccc[nH]3)C=CC1=C2 [Aminopotentidine-2-NB590]	1.05	1.00	–
CN(C)CCC=C1c2ccccc2CCc2ccc(C(=O)NCCNC(=O)CCOCCOCCOCCOCCNC(=O)CCc3ccc4n3[B-](F)(F)[N+]3=C(c5ccc[nH]5)C=CC3=C4)cc21 [Amitriptyline-b-2-NB590]	0.94	1.01	–
COc1ccc2c(n1)c(CCNC(C)=O)cn2CCNC(=O)CCc1ccc2n1[B-](F)(F)[N+]1=C(c3ccc[nH]3)C=CC1=C2 [Azamelatonin-1-NB590]	–	–	NanoBRET Fold Response (0.1μM tracer): 0.81; NanoBRET Fold Response (1μM tracer): 1.23
COc1ccc2[nH]c(-c3ccc(CNC(=O)CCOCCOCCOCCOCCNC(=O)CCc4ccc5n4[B-](F)(F)[N+]4=C(c6ccc[nH]6)C=CC4=C5)cc3)c(CCNC(C)=O)c2n1 [AzomelatoninICO9-2-NB590]	–	–	NanoBRET Fold Response (0.1μM tracer): 0.86; NanoBRET Fold Response (1μM tracer): 0.91
O=C(CCOCCOCCOCCOCCNC(=O)CCc1ccc2n1[B-](F)(F)[N+]1=C(c3ccc[nH]3)C=CC1=C2)NCCCN1CCN(C2=Nc3cc(Cl)ccc3Nc3ccccc32)CC1 [Clozapine-a-2-NB590]	–	–	NanoBRET Fold Response (CYSLTR1, 0.1μM tracer): 0.98; NanoBRET Fold Response (CYSLTR1, 1μM tracer): 1.11
CN1CCN(C2=Nc3cc(Cl)ccc3Nc3ccc(CNC(=O)CCOCCOCCOCCOCCNC(=O)CCc4ccc5n4[B-](F)(F)[N+]4=C(c6ccc[nH]6)C=CC4=C5)cc32)CC1 [Clozapine-b-2-NB590]	–	–	NanoBRET Fold Response (CYSLTR1, 0.1μM tracer): 1.10
CN1CCN(C2=Nc3cc(Cl)ccc3N(CC(=O)NCCOCCOCCOCCOCCNC(=O)CCc3ccc4n3[B-](F)(F)[N+]3=C(c5ccc[nH]5)C=CC3=C4)c3ccccc32)CC1 [Clozapine-c-2-NB590]	–	–	NanoBRET Fold Response (CYSLTR1, 0.1μM tracer): 0.90
O=C(CCOCCOCCOCCOCCNC(=O)CCc1ccc2n1[B-](F)(F)[N+]1=C(c3ccc[nH]3)C=CC1=C2)NCCCN1CCN(C2=Nc3ccccc3Oc3ccc(Cl)cc32)CC1 [Loxapine-a-2-NB590]	1.12	1.02	–
COc1ccccc1N1CCN(CCCCN2C(=O)c3ccc(CNC(=O)CCOCCOCCOCCOCCNC(=O)CCc4ccc5n4[B-](F)(F)[N+]4=C(c6ccc[nH]6)C=CC4=C5)cc3C2=O)CC1 [NAN-190-2-NB590]	1.04	1.02	–
COc1ccccc1N1CCN(CCCCN2C(=O)c3ccc(CNC(=O)CCOCCNC(=O)c4ccc(CNC(=O)CCc5ccc6n5[B-](F)(F)[N+]5=C(c7ccc[nH]7)C=CC5=C6)cc4)cc3C2=O)CC1 [NAN-190-3-NB590]	1.15	1.30	–
O=C(CCc1ccc2n1[B-](F)(F)[N+]1=C(c3ccc[nH]3)C=CC1=C2)NCc1ccc(C(=O)NCCOCCC(=O)N[C@@H]2CC[C@@]3(O)[C@H]4Cc5ccc(O)c6c5[C@@]3(CCN4CC3CC3)[C@H]2O6)cc1 [Naltrexone-3-NB590]	0.74	1.09	–
Cc1cc2c(s1)Nc1ccccc1N=C2N1CCN(CCCNC(=O)CCOCCOCCOCCOCCNC(=O)CCc2ccc3n2[B-](F)(F)[N+]2=C(c4ccc[nH]4)C=CC2=C3)CC1 [Olanzapine-a-2-NB590]	1.00	1.06	–
O=C(CCc1ccc2n1[B-](F)(F)[N+]1=C(c3ccc[nH]3)C=CC1=C2)NCc1ccc(C(=O)NCCOCCOCCNCC(O)COc2cccc3ccccc23)cc1 (stereo not shown) [Propranolol-3-NB590]	–	–	NanoBRET Fold Response (CYSLTR1, 0.1μM): 0.71
O=C(CCc1ccc2n1[B-](F)(F)[N+]1=C(c3ccc[nH]3)C=CC1=C2)NCCOCCOCCNC(=O)OCCOCCN1CCN(C2=Nc3ccccc3Sc3ccccc32)CC1 [Quetiapine-a-2-NB590]	0.90	1.08	–
Cc1nc2n(c(=O)c1CCN1CCC(c3noc4cc(F)ccc34)CC1)CCCC2OC(=O)NCCOCCOCCOCCOCCNC(=O)CCc1ccc2n1[B-](F)(F)[N+]1=C(c3ccc[nH]3)C=CC1=C2 (stereo not shown) [Risperidone-2-NB590]	0.97	0.94	–
CC(C)N(CC[C@H](c1ccccc1)c1cc(CCNC(=O)CCOCCOCCOCCOCCNC(=O)CCc2ccc3n2[B-](F)(F)[N+]2=C(c4ccc[nH]4)C=CC2=C3)ccc1O)C(C)C [Tolterodine-2-NB590]	0.86	0.91	–
CC(C)N(CC[C@H](c1ccccc1)c1cc(CCNC(=O)c2ccc(CNC(=O)CCc3ccc4n3[B-](F)(F)[N+]3=C(c5ccc[nH]5)C=CC3=C4)cc2)ccc1O)C(C)C [Tolterodine-BZ-NB590]	0.97	0.99	–
CCCn1c(=O)c2[nH]c(-c3ccc(OCC(=O)NCCNC(=O)CCOCCNC(=O)c4ccc(CNC(=O)CCc5ccc6n5[B-](F)(F)[N+]5=C(c7ccc[nH]7)C=CC5=C6)cc4)cc3)nc2n(CCC)c1=O [XAC-3-NB590]	–	1.08	–
